From patent publication US12227520B2 (priority 2019, dated 2025)
Read-outs that look alike come from different tables or passages of the source.

What was measured:
pLai RLuc reporter virus = assay: microbe, parasite or virus in culture; format: cell-based, HIV; details: Human immunodeficiency virus 1, 72 h
Outline: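 MT-4 cells pre-infected 2 h at 37 °C with pLai RLuc virus, then exposed to 1:3 serial dilutions of compound in RPMI/10% FBS with or without 50% human serum for 72 h at 37 °C. Renilla luminescence read-out; serum shift = EC50(HS/CCM)/EC50(CCM).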

HIV-1 (IIIB) = assay: Antiviral assay in MT-4 cells (HIV MT-4 antiviral assay); format: cell-based; details: Human immunodeficiency virus 1, IIIB, MT4, 120 h, HIV-1 (IIIB) in MT-4 cells, 5 days incubation
Outline: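 MT-4 cells infected with HIV-1 IIIB (1:250 diluted stock) and exposed to 1:3 serially diluted compound in RPMI with 10% FBS. Viability read by CellTiter-Glo luminescence after 5 days at 37° C; mock-infected cells and 5 μM AZT as controls.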

[1] = Cytotoxicity assay in MT-4 cells; format: cell-based, human; details: human
Outline: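 Infected MT-4 cells (HIV-1 IIIB, fresh 1:250 dilution of concentrated stock) or mock-infected cells exposed to compounds for 5 days at 37 °C. Viability by CellTiter-Glo luminescence; 5 μM AZT positive control, no-drug negative control. Uninfected cells used for cytotoxicity, with 10 μM puromycin as base-level cytotoxicity control.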

[2] = read-out: Antiviral Serum Shift RLuc 50% HS, HS/CCM (RPMI media, 10% FBS, 50% HS, 1% P/S), 72-h incubation
[3] = read-out: Antiviral Serum Shift RLuc CCM, CCM (RPMI media, 10% FBS, 1% P/S), 72-h incubation
[4] = uninfected MT-4 cells, 5 days incubation, read-out: CC50

Structure (SMILES)	EC50 (pLai RLuc reporter virus; [2])	EC50 (pLai RLuc reporter virus; [3])	EC50 (HIV-1 (IIIB); read-out: EC50)	CC50 at 5 days [1, 4]	CC50 at 5 days ([1]; CC50)	EC50 (HIV-1 (IIIB))
O=C(NCc1ccc(F)cc1F)c1cn2c(c(O)c1=O)C(=O)N1CC[C@H](F)C[C@@H]2C1 [Example 56-3, (5S, 7R)—N-(2,4-difluorobenzyl)-5-fluoro-12-hydroxy-1,11-dioxo-1,4,5,6,7,11-hexahydro-3H-2,7-methanopyrido[1,2-a][1,4]diazonine-10-carboxamide]	13.3 nM	0.312 nM	5.24 nM	16100 nM		
O=C(NCc1ccc(F)cc1F)c1cn2c(c(O)c1=O)C(=O)N1C[C@H]2COc2cc(F)c(F)cc21 [Example 92-2, (6S)—N-(2,4-difluorobenzyl)-10,11-difluoro-1-hydroxy-2,14-dioxo-2,6,7,14-tetrahydro-6,13-methanobenzo[b]pyrido[2,1-f][1,4,7]oxadiazonine-3-carboxamide]	0.772 nM	0.309 nM	2.01 nM	> 39300 nM		
O=C(NCc1ccc(F)c(Cl)c1Cl)c1cn2c(c(O)c1=O)C(=O)N1CCCC[C@H]2C1 [Example 62, (7S)—N-(2,3-dichloro-4-fluorobenzyl)-12-hydroxy-1,11-dioxo-1,4,5,6,7,11-hexahydro-3H-2,7-methanopyrido[1,2-a][1,4]diazonine-10-carboxamide]	4.22 nM	0.292 nM	1.27 nM	3460 nM		
O=C(NCc1ccc(F)c(Cl)c1F)c1cn2c(c(O)c1=O)C(=O)N1CCCC[C@@H]2C1 [Example 35, (7R)—N-(3-chloro-2,4-difluorobenzyl)-12-hydroxy-1,11-dioxo-1,4,5,6,7,11-hexahydro-3H-2,7-methanopyrido[1,2-a][1,4]diazonine-10-carboxamide]	44.4 nM	0.423 nM	1.5 nM	4960 nM		
C[C@H]1CCC[C@@H]2CN1C(=O)c1c(O)c(=O)c(C(=O)NCc3ccc(F)cc3F)cn12 [Example 52-2, (3S, 7R)—N-(2,4-difluorobenzyl)-12-hydroxy-3-methyl-1,11-dioxo-1,4,5,6,7,11-hexahydro-3H-2,7-methanopyrido[1,2-a][1,4]diazonine-10-carboxamide]	2.19 nM	0.384 nM	1.68 nM	5840 nM		
O=C(NCc1c(F)cc(F)cc1F)c1cn2c(c(O)c1=O)C(=O)N1Cc3ccc(Cl)cc3C[C@H]2C1 (single isomer, unassigned) [Example 127-1]	2.93 nM	0.324 nM	1.38 nM	5630 nM		
O=C(NCc1c(F)cc(F)cc1F)c1cn2c(c(O)c1=O)C(=O)N1C[C@H]2CCCc2ccccc21 [Example 80-2, (6R)-1-hydroxy-2,15-dioxo-N-(2,4,6-trifluorobenzyl)-2,6,7,8,9,15-hexahydro-6,14-methanobenzo[e]pyrido[1,2-a][1,4]diazecine-3-carboxamide]	7.54 nM	0.618 nM	5.35 nM	13400 nM		
O=C(NCc1ccc(F)cc1F)c1cn2c(c(O)c1=O)C(=O)N1CC[C@H](F)C[C@H]2C1 [Example 56-1, (5S, 7S)—N-(2,4-difluorobenzyl)-5-fluoro-12-hydroxy-1,11-dioxo-1,4,5,6,7,11-hexahydro-3H-2,7-methanopyrido[1,2-a][1,4]diazonine-10-carboxamide]	1.91 nM	0.967 nM	3.99 nM	> 39400 nM		
O=C(NCc1ccc(F)c(Cl)c1F)c1cn2c(c(O)c1=O)C(=O)N1CC=CC[C@H]2C1 [Example 58, (7S)—N-(3-chloro-2,4-difluorobenzyl)-12-hydroxy-1,11-dioxo-1,6,7,11-tetrahydro-3H-2,7-methanopyrido[1,2-a][1,4]diazonine-10-carboxamide]	1.67 nM	0.25 nM	0.986 nM	4150 nM		
O=C(NCc1c(F)cc(F)cc1F)c1cn2c(c(O)c1=O)C(=O)N1CCC[C@@H](F)[C@@H]2C1 [Example 15-1, (6R,7S)-6-fluoro-12-hydroxy-1,11-dioxo-N-(2,4,6-trifluorobenzyl)-1,4,5,6,7,11-hexahydro-3H-2,7-methanopyrido[1,2-a][1,4]diazonine-10-carboxamide]	11.6 nM	0.32 nM	1.7 nM	18300 nM		
O=C(NCc1c(F)cc(F)cc1F)c1cn2c(c(O)c1=O)C(=O)N1C[C@@H]2CCc2c(Cl)cccc21 [Example 45-1, (12S)-1-chloro-7-hydroxy-6,8-dioxo-N-(2,4,6-trifluorobenzyl)-6,8,13,14-tetrahydro-12H-5,12-methanobenzo[e]pyrido[1,2-a][1,4]diazonine-9-carboxamide]	2.56 nM	0.359 nM	1.66 nM	6900 nM		
C[C@@]1(O)CCCN2C[C@@H]1n1cc(C(=O)NCc3ccc(F)cc3F)c(=O)c(O)c1C2=O [Example 14-2, (6R,7S)—N-(2,4-difluorobenzyl)-6,12-dihydroxy-6-methyl-1,11-dioxo-1,4,5,6,7,11-hexahydro-3H-2,7-methanopyrido[1,2-a][1,4]diazonine-10-carboxamide]	0.414 nM	0.567 nM	2.7 nM	19900 nM		
O=C(NCc1cccc(F)c1F)c1cn2c(c(O)c1=O)C(=O)N1CCCC[C@H]2C1 [Example 160, (7S)—N-(2,3-difluorobenzyl)-12-hydroxy-1,11-dioxo-1,4,5,6,7,11-hexahydro-3H-2,7-methanopyrido[1,2-a][1,4]diazonine-10-carboxamide]	1.19 nM	0.368 nM	1.52 nM	11400 nM		
O=C(NCc1ccc(F)cc1F)c1cn2c(c(O)c1=O)C(=O)N1CCC[C@@H](F)[C@@H]2C1 [Example 172-1, (6R,7S)—N-(2,4-difluorobenzyl)-6-fluoro-12-hydroxy-1,11-dioxo-1,4,5,6,7,11-hexahydro-3H-2,7-methanopyrido[1,2-a][1,4]diazonine-10-carboxamide]	42.7 nM	0.689 nM	2.4 nM	15600 nM		
O=C(NCc1c(F)cc(F)cc1F)c1cn2c(c(O)c1=O)C(=O)N1C[C@@H]2CCCC12CC2 [Example 129, (7'S)-12′-hydroxy-1′,11′-dioxo-N-(2,4,6-trifluorobenzyl)-1′,4′,5′,6′,7′,11′-hexahydrospiro[cyclopropane-1,3′-[2,7]methanopyrido[1,2-a][1,4]diazonine]-10′-carboxamide]	4.21 nM	0.309 nM	1.53 nM		7440 nM	
O=C(NCc1c(F)cc(F)cc1F)c1cn2c(c(O)c1=O)C(=O)N1CCOC[C@H]2C1 [Example 20, (7R)-12-Hydroxy-1,11-dioxo-N-(2,4,6-trifluorobenzyl)-1,3,4,6,7,11-hexahydro-2,7-methanopyrido[1,2-d][1,4,7]oxadiazonine-10-carboxamide]	33.4 nM	1.83 nM	5.6 nM	37200 nM		
C[C@H]1[C@@H]2CCCCN1C(=O)c1c(O)c(=O)c(C(=O)NCc3c(F)cc(F)cc3F)cn12 [Example 8, (7S, 13S)-12-hydroxy-13-methyl-1,11-dioxo-N-(2,4,6-trifluorobenzyl)-1,4,5,6,7,11-hexahydro-3H-2,7-methanopyrido[1,2-a][1,4]diazonine-10-carboxamide]	1.41 nM	0.41 nM		20800 nM		1.5 nM
